Data published in paper PMC11747885, “Potent inhibitors of the human RNA ligase Rlig1 highlights its role in RNA integrity maintenance under oxidative cellular stress” (Chemical Science, 2025).
Values joined by “and” are separate entries in the source; they are usually repeats but may differ in a detail not shown here. Identical values can stand only once. Marks after values point to notes of the source that are not given here.

Tests used:
HEK293 cells [1] = assay: Cell viability assay of HEK293 cells treated with inhibitors and menadione; type: cell-based, human; conditions: for Mean Diff, (Predicted (LS) mean diff,) w/o menadione - w menadione: 2 way ANOVA, Šídák's multiple comparisons test, normalised viability
HEK293 cells [2] = assay: RNA integrity analysis of HEK293 cells treated with inhibitors and menadione (TapeStation 28S/18S rRNA); type: cell-based, human; conditions: 30 μM compound 24 h
[3] = biological target: T1, human DNA ligase 1 (hLig1) (Homo sapiens, UniProt P18858); assay: DNA ligation assay with hLig1 and 47 (compound titration); type: biochemical; conditions: for Product formation [%] of DNA ligation, hlig1: three replicates
T1 construct: made in house; host or cells: E. coli Rosetta BL21 (DE3), pET28a-hLig1
T1 sequence (P18858 whole entry): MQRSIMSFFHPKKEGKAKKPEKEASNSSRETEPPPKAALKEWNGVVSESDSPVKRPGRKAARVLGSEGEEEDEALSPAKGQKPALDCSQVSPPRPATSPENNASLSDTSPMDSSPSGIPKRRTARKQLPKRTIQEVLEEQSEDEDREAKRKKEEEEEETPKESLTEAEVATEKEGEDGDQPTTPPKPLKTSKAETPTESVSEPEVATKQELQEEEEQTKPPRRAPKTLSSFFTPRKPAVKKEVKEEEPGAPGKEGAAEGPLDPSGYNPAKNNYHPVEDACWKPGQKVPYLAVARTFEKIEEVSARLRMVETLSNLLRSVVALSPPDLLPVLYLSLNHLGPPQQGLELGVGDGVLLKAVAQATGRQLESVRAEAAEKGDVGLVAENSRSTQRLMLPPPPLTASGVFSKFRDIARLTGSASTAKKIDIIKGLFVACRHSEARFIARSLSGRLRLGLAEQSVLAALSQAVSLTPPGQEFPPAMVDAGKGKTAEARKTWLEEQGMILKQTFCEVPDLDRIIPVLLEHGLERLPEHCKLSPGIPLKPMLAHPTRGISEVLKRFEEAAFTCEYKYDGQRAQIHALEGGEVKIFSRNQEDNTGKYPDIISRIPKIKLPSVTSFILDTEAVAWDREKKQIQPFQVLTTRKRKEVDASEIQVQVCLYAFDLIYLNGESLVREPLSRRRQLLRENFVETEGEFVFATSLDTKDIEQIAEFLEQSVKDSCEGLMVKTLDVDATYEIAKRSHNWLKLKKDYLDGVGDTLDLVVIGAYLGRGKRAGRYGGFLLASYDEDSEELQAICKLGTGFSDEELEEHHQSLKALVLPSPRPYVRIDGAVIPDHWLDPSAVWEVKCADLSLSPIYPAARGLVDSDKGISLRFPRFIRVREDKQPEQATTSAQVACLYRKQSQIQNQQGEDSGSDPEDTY

[4] = biological target: T1, human DNA ligase 1 (hLig1); assay: DNA ligation assay with various hLig1 concentration at constant inhibitor concentration; type: biochemical; conditions: 10 μM compound, hLig1 titrated (500 nM to 31.3 nM), 30 min 37 °C
HEK293 cells [5] = assay: Light-microscopy of inhibitor- and menadione-treated HEK293 cells; type: cell-based, human; conditions: 30 µM compound 24 h, then menadione 5 h
in vitro = conditions: human
HEK293 cells [6] = assay: Cell viability assay of HEK293 cells treated with inhibitors (CellTiter-Glo)
[7] = Figure 5B, Sigmoidal, 4PL, fit Interrupted

Q: What does the source list for `Nc1nccc(Nc2ccc(NC(=O)c3ccc(Nc4ncnc5ccccc45)cc3)cc2)n1` [Compound 47]?
A: Cell viability raw signal, technical replicates (HEK293 cells [1]; 15 µM compound, w Menadione (40µM), 20240508 plate 012): 20771 and 17972 and 20655 and 18810; Cell viability raw signal, technical replicates (HEK293 cells [1]; 15 µM compound, w Menadione (40µM), 20240508 plate 013): 17686 and 14464 and 20096 and 19671; Cell viability raw signal, technical replicates (HEK293 cells [1]; 15 µM compound, w Menadione (40µM), 20240515 plate 014): 22870 and 22437 and 28706 and 27891; Cell viability raw signal, technical replicates (HEK293 cells [1]; 15 µM compound, w Menadione (40µM), 20240515 plate 015): 23978 and 24873 and 26687 and 23492; Mean Diff, (Predicted (LS) mean diff,) w/o menadione - w menadione (HEK293 cells [1]; 30 µM compound): 26.18; Cell viability raw signal, technical replicates (HEK293 cells [1]; 30 µM compound, w Menadione (40µM), 20240508 plate 012): 17555 and 22131 and 18922 and 17419; Cell viability raw signal, technical replicates (HEK293 cells [1]; 30 µM compound, w Menadione (40µM), 20240508 plate 013): 13658 and 13606 and 15514 and 16155; Cell viability raw signal, technical replicates (HEK293 cells [1]; 30 µM compound, w Menadione (40µM), 20240515 plate 014): 15897 and 16266 and 21346 and 20584; Cell viability raw signal, technical replicates (HEK293 cells [1]; 30 µM compound, w Menadione (40µM), 20240515 plate 015): 19537 and 20556 and 18511 and 24331; Cell viability raw signal, technical replicates (HEK293 cells [1]; 30 µM compound, w/o Menadione, 20240508 plate 012): 338540 and 348450 and 357680 and 361520; Mean Diff, (Predicted (LS) mean diff,) w/o menadione - w menadione (HEK293 cells [1]; 60 µM compound): 29.66; Cell viability raw signal, technical replicates (HEK293 cells [1]; 60 µM compound, w Menadione (40µM), 20240508 plate 012): 68212* and 77972* and 10202 and 14953; Cell viability raw signal, technical replicates (HEK293 cells [1]; 60 µM compound, w Menadione (40µM), 20240508 plate 013): 97500* and 94661* and 7245 and 13149; Cell viability raw signal, technical replicates (HEK293 cells [1]; 60 µM compound, w Menadione (40µM), 20240515 plate 014): 23954 and 23288 and 10147 and 14983; Cell viability raw signal, technical replicates (HEK293 cells [1]; 60 µM compound, w Menadione (40µM), 20240515 plate 015): 24869 and 20588 and 9258 and 15604; Cell viability raw signal, technical replicates (HEK293 cells [1]; 60 µM compound, w/o Menadione, 20240508 plate 012): 309000 and 323530 and 287920 and 324080; Cell viability raw signal, technical replicates (HEK293 cells [1]; 60 µM compound, w/o Menadione, 20240508 plate 013): 294060 and 325150 and 301550 and 314910; Cell viability raw signal, technical replicates (HEK293 cells [1]; 60 µM compound, w/o Menadione, 20240515 plate 014): 295270 and 285610 and 291450 and 291110; Cell viability raw signal, technical replicates (HEK293 cells [1]; 60 µM compound, w/o Menadione, 20240515 plate 015): 292640 and 290230 and 291370 and 285220; cell viability under oxidative stress (in words) (HEK293 cells [1]; inhibitor 24 h, then 40 μM menadione 5 h): significantly reduced viability only when the cells were stressed; 28S/18S ratio (HEK293 cells [2]; Menadione 0 μM): 3.0; 28S/18S ratio (HEK293 cells [2]; Menadione 40 μM 5 h): 2.1; 28S/18S ratio (HEK293 cells [2]; Menadione 60 μM 5 h): 0.9; effect on DNA ligase activity (in words) ([3]; 1:2 dilution series starting from 30 μM compound, 500 nM hLig1, 20 min 37 °C): No effect; Bottom (best-fit value), hlig1 [3, 7]: -4.954; HillSlope (best-fit value), hlig1 [3, 7]: -3.033; Span (best-fit value), hlig1 [3, 7]: 97.9; Top (best-fit value), hlig1 [3, 7]: 92.94; LogIC50 (best-fit value), hlig1 ([3]; Figure 5B, Sigmoidal, 4PL, fit Interrupted, log of µM): 1.72; Product formation [%] of DNA ligation, hlig1 ([3]; log (47 [µM]) 0.273001): -3.458% and -4.463% and -2.953%; Product formation [%] of DNA ligation, hlig1 ([3]; log (47 [µM]) 0.574031): -2.567% and -4.108% and -2.802%; Product formation [%] of DNA ligation, hlig1 ([3]; log (47 [µM]) 0.875061): -2.276% and -3.138% and -3.06%; Product formation [%] of DNA ligation, hlig1 ([3]; log (47 [µM]) 1.17609): 0.5458% and -2.902% and -1.203%; Product formation [%] of DNA ligation, hlig1 ([3]; log (47 [µM]) 1.47712): 11.4249% and 9.911% and 18.8699%; Product formation [%] of DNA ligation, hlig1 ([3]; log (47 [µM]) -0.0280287): -3.67% and -4.363% and -3.165%; Product formation [%] of DNA ligation, hlig1 ([3]; log (47 [µM]) -0.329059): -3.453% and -3.785% and -3.456%; Product formation [%] of DNA ligation, hlig1 ([3]; log (47 [µM]) -0.630089): -3.095% and -4.479% and -2.914%; effect on hLig1 activity (in words) [4]: least impact on hLig1 activity; cell morphology (HEK293 cells [5]): poor adherence and cell shrinkage; viability at 24 h, 0.234375 µM (in vitro): 109%; viability at 24 h, 0.46875 µM (in vitro): 101%; viability at 24 h, 0.9375 µM (in vitro): 102%; viability at 24 h, 1.875 µM (in vitro): 102%; viability at 24 h, 3.75 µM (in vitro): 97.2%; viability at 24 h, 7.5 µM (in vitro): 97.9%; viability at 24 h, 15 µM (in vitro): 93%; viability at 24 h, 30 µM (in vitro): 86%; cytotoxicity (in words) (HEK293 cells [6]; HEK293, 24 h, up to 30 μM): no detectable cytotoxicity; IC50 (Figure 3D: EC50 values for plot; log(inhibitor) vs. response -- Variable slope (four parameters)) (HEK293 cells [6]; HEK293 cell viability, fit per plate (3 plates, 4 technical replicates each), highest tested concentration 30 µM): 163.557 µM and 35.63 µM and 278.968 µM; LogIC50 (log(inhibitor) vs. response -- Variable slope (four parameters)) (HEK293 cells [6]; HEK293 cell viability, fit per plate (3 plates, 4 technical replicates each), log of [µM]): 2.214 and 1.552 and 2.446; EC50 (HEK293 cells [6]; Homo sapiens, HEK293, 24 h): > 30 µM
